Reference: BigSolDB 2.1

For `O=Cc1ccc(C(=O)O)cc1`, which solubility (mole fraction) (in NMP, 283.15 K) is on record?
The solubility (mole fraction) was 0.0654.

And the solubility (mole fraction) (in NMP, 288.15 K)?
The solubility (mole fraction) was 0.0767.

What about the solubility (mole fraction) (in NMP, 293.15 K) of the same molecule?
The solubility (mole fraction) was 0.0897.

And the solubility (mole fraction) (in NMP, 298.15 K)?
Its solubility (mole fraction) is 0.104.

What about the solubility (mole fraction) (in NMP, 303.15 K) of the same molecule?
The solubility (mole fraction) was 0.121.

What about the solubility (mole fraction) (in NMP, 308.15 K) of the same molecule?
The solubility (mole fraction) was 0.14.

What about the solubility (mole fraction) (in NMP, 313.15 K) of the same molecule?
Its solubility (mole fraction) is 0.161.

What about the solubility (mole fraction) (in NMP, 318.15 K) of the same molecule?
Its solubility (mole fraction) is 0.184.

And the solubility (mole fraction) (in NMP, 323.15 K)?
Its solubility (mole fraction) is 0.211.

And the solubility (mole fraction) (in ethanol, 283.15 K)?
Its solubility (mole fraction) is 0.00815.

And the solubility (mole fraction) (in ethanol, 288.15 K)?
The solubility (mole fraction) was 0.00973.

And the solubility (mole fraction) (in ethanol, 293.15 K)?
The solubility (mole fraction) was 0.0115.

And the solubility (mole fraction) (in ethanol, 298.15 K)?
Its solubility (mole fraction) is 0.0134.

What about the solubility (mole fraction) (in ethanol, 303.15 K) of the same molecule?
Its solubility (mole fraction) is 0.0155.

What about the solubility (mole fraction) (in ethanol, 308.15 K) of the same molecule?
Its solubility (mole fraction) is 0.0181.

What about the solubility (mole fraction) (in ethanol, 313.15 K) of the same molecule?
The solubility (mole fraction) was 0.0211.

And the solubility (mole fraction) (in ethanol, 318.15 K)?
The solubility (mole fraction) was 0.0246.

What about the solubility (mole fraction) (in ethanol, 323.15 K) of the same molecule?
Its solubility (mole fraction) is 0.028.

What about the solubility (mole fraction) (in isopropanol, 283.15 K) of the same molecule?
The solubility (mole fraction) was 0.00498.

What about the solubility (mole fraction) (in isopropanol, 288.15 K) of the same molecule?
The solubility (mole fraction) was 0.00612.

What about the solubility (mole fraction) (in isopropanol, 293.15 K) of the same molecule?
The solubility (mole fraction) was 0.00727.

And the solubility (mole fraction) (in isopropanol, 298.15 K)?
Its solubility (mole fraction) is 0.00867.

And the solubility (mole fraction) (in isopropanol, 303.15 K)?
Its solubility (mole fraction) is 0.0103.

What about the solubility (mole fraction) (in isopropanol, 308.15 K) of the same molecule?
Its solubility (mole fraction) is 0.0121.

What about the solubility (mole fraction) (in isopropanol, 313.15 K) of the same molecule?
Its solubility (mole fraction) is 0.014.

What about the solubility (mole fraction) (in isopropanol, 318.15 K) of the same molecule?
Its solubility (mole fraction) is 0.0163.

And the solubility (mole fraction) (in isopropanol, 323.15 K)?
Its solubility (mole fraction) is 0.0185.

And the solubility (mole fraction) (in methanol, 283.15 K)?
The solubility (mole fraction) was 0.00781.

What about the solubility (mole fraction) (in methanol, 288.15 K) of the same molecule?
The solubility (mole fraction) was 0.00899.

And the solubility (mole fraction) (in methanol, 293.15 K)?
The solubility (mole fraction) was 0.00999.

What about the solubility (mole fraction) (in methanol, 298.15 K) of the same molecule?
Its solubility (mole fraction) is 0.0115.

What about the solubility (mole fraction) (in methanol, 303.15 K) of the same molecule?
The solubility (mole fraction) was 0.0129.

What about the solubility (mole fraction) (in methanol, 308.15 K) of the same molecule?
The solubility (mole fraction) was 0.0144.

What about the solubility (mole fraction) (in methanol, 313.15 K) of the same molecule?
Its solubility (mole fraction) is 0.0163.

What about the solubility (mole fraction) (in methanol, 318.15 K) of the same molecule?
The solubility (mole fraction) was 0.0178.

And the solubility (mole fraction) (in methanol, 323.15 K)?
Its solubility (mole fraction) is 0.02.

And the solubility (mole fraction) (in water, 283.15 K)?
The solubility (mole fraction) was 2.15e-05.

What about the solubility (mole fraction) (in water, 288.15 K) of the same molecule?
Its solubility (mole fraction) is 2.83e-05.

What about the solubility (mole fraction) (in water, 293.15 K) of the same molecule?
Its solubility (mole fraction) is 3.61e-05.

And the solubility (mole fraction) (in water, 298.15 K)?
Its solubility (mole fraction) is 4.64e-05.

What about the solubility (mole fraction) (in water, 303.15 K) of the same molecule?
The solubility (mole fraction) was 5.91e-05.

And the solubility (mole fraction) (in water, 308.15 K)?
Its solubility (mole fraction) is 7.67e-05.

What about the solubility (mole fraction) (in water, 313.15 K) of the same molecule?
The solubility (mole fraction) was 9.57e-05.

What about the solubility (mole fraction) (in water, 318.15 K) of the same molecule?
Its solubility (mole fraction) is 0.00012.

What about the solubility (mole fraction) (in water, 323.15 K) of the same molecule?
Its solubility (mole fraction) is 0.000148.
